From publication PMC6722883 (FEBS Open Bio, 2019)

How the values were obtained:
[1] = target: human serum albumin (HSA) (Homo sapiens, UniProt P02768); settings: pH 7.2
[2] = buffer or solvent
physchem [3] = settings: not applicable
physchem [4] = settings: buffer or solvent
[5] = target: T1, α3β4 nAChR expressed in Xenopus oocytes (Rattus norvegicus, UniProt P04757+P12392); test: cell-based; assay type: cell-based
T1 construct: expressed in transfected cells; host or cells: Xenopus oocytes injected with cRNA
T1 sequence (P04757 26-499 limits assumed): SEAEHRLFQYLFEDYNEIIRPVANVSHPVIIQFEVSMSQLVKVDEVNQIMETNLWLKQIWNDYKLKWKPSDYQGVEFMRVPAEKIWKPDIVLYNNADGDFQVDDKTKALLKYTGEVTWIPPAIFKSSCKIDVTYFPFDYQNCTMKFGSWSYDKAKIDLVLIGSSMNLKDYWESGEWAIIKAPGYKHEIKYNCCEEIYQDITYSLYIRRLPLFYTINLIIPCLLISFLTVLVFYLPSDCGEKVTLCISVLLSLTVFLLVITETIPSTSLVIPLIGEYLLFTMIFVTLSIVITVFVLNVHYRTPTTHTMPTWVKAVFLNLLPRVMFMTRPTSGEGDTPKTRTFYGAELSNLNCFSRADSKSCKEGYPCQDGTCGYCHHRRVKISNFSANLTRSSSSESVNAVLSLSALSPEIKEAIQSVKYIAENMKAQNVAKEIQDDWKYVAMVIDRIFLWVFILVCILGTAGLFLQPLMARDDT
T1 sequence (P12392 21-495 limits assumed): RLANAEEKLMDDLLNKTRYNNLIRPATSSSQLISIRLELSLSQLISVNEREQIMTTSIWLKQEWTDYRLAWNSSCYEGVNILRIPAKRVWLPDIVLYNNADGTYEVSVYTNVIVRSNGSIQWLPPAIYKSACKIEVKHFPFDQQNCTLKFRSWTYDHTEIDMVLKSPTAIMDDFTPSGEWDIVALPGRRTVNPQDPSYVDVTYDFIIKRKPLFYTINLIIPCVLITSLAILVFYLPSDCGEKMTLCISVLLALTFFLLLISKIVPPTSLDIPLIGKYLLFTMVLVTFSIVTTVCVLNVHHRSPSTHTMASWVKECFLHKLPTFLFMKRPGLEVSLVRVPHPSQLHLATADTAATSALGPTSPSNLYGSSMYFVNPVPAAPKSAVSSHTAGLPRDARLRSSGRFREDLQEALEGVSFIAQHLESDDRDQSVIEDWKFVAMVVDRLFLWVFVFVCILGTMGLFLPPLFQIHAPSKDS

[6] = pH 3

human serum albumin (HSA), sequence (P02768 25-609 limits assumed): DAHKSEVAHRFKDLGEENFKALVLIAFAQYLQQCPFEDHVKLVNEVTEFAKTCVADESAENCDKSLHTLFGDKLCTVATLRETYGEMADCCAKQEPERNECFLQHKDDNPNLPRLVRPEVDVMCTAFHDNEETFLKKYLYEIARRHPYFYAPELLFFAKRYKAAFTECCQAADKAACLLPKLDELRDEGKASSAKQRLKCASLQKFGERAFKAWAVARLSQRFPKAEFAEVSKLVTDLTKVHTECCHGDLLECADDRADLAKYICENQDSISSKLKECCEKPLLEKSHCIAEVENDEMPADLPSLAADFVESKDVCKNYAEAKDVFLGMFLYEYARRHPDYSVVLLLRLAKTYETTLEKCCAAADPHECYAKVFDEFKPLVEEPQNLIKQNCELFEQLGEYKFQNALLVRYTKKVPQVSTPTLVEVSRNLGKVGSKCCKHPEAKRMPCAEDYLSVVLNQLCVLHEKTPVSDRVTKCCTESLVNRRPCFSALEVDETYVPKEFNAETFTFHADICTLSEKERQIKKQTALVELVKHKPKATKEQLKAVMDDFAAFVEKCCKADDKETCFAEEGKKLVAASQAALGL

SMILES | Globular isomer remaining, % of the total [1] [%] | remaining at 8 h [2] [%] | remaining at 168 h (physchem [3]) [%] | remaining at 1 min (physchem [4]) [%] | remaining at 16 h (physchem [4]) [%] | Hill slope [5] | Degradation rate constant K obs (50 °C) [6] | Degradation rate constant K obs (60 °C) [6] | Degradation rate constant K obs (70 °C) [6] | Degradation rate constant K obs (80 °C) [6] | E a, activation energy [6] [kcal/mol] | t0.5, half-life period at 25 °C [6] [days] | t0.9, validity period at 25 °C [6] [days] | IC50 [5] [nM] | Response at 100 nM [5] [%]
CC[C@H](C)[C@@H]1NC(=O)[C@@H]2CCCN2C(=O)[C@H](CO)NC(=O)[C@H](CCSC)NC(=O)[C@H](C)NC(=O)[C@H](CO)NC(=O)[C@@H]2CSSC[C@H](NC(=O)CN)C(=O)N[C@@H](CSSC[C@@H](C(N)=O)NC1=O)C(=O)N[C@@H](CO)C(=O)N[C@@H](Cc1cnc[nH]1)C(=O)N1CCC[C@H]1C(=O)N[C@@H](C(C)C)C(=O)N2 [TxID, α‐Conotoxin TxID] | 75 | 36 | 95 | 71 | 63 | 1.17 (0.87–1.46) | 1.01 × 10^−3 1/Mh | 2.42 × 10^−3 1/Mh | 5.54 × 10^−3 1/Mh | 2.02 × 10^−2 1/Mh | 27.9842 | 707 | 107 |  | 
CC[C@H](C)[C@@H]1NC(=O)[C@@H]2CCCN2C(=O)[C@H](CO)NC(=O)[C@H](CC[S+](C)[O-])NC(=O)[C@H](C)NC(=O)[C@H](CO)NC(=O)[C@@H]2CSSC[C@H](NC(=O)CN)C(=O)N[C@@H](CSSC[C@@H](C(N)=O)NC1=O)C(=O)N[C@@H](CO)C(=O)N[C@@H](Cc1c[nH]cn1)C(=O)N1CCC[C@H]1C(=O)N[C@@H](C(C)C)C(=O)N2 (stereo partly shown) [Product I] |  |  |  |  |  | 0.76 (0.65–0.86) |  |  |  |  |  |  |  | 503 | 15
